How the values were obtained:
HFD-fed mice [1] = experiment: Body weight, fat mass and food intake in HFD-fed mice injected with JPH203; assay type: in vivo; conditions: 25 mg/kg intraperitoneally
Description: (§1) A study was conducted to determine if inhibiting Slc7a5 prevents the metabolic response of adipocyte to excess […] intake and obesity. Mice fed with HFD for 3 months were then injected intraperitoneally with either (a) JPH203, a potent Slc7a5 inhibitor, at a dose of 25 mg/kg, or (b) PBS (vehicle) as control, for 15 consecutive days while on HFD (Days 1-15). Mice fed with a normal diet and receiving no injection were included as a comparator.

HFD-fed mice [2] = experiment: Toxicity of JPH203 treatment in HFD-fed mice (liver and kidney function, activity, organ mass, whole blood counts); assay type: in vivo; conditions: 25 mg/kg intraperitoneally
Description: as §1
In addition, liver function (AST, ALT), kidney function (creatinine), and effect on bone marrow and immune response (whole blood counts) were tested to examine the toxicity of the pharmacological JPH203 treatment. […] Also, there was no effect of JPH203 treatment on liver, heart, or kidney weight (see FIG. 3, Panel E).

HFD-fed mice [3] = experiment: Serum levels of adipokine and cytokines by ELISA in HFD-fed mice; assay type: in vivo; conditions: 25 mg/kg intraperitoneally, 15 days, vs control HFD-fed mice
Description: Panels A-G show serum levels of leptin, insulin like growth factor 1 (IGF1), monocyte chemoattractant protein-1 (MCP1), vascular endothelial growth factor (VEGF), interleukin 1 alpha (ILla), interleukin 1 beta (IL1β), interleukin 6, and tumor necrosis factor alpha (TNFa), respectively, in normal diet-fed mice, HFD-fed mice injected with JPH203, and control HFD-fed mice. [“AU”=arbitrary unit; data shown as mean±SEM and significance was determined by one-way analysis of variance (ANOVA) or unpaired two-tailed t-test; *P<0.05, **P<0.01; ***P<0.001, ****P<0.0001.]
as §1
Obesity is correlated with chronically high levels of several cytokines which produced primarily by adipose tissues, which play a role in chronic inflammatory states.

[4] = system: epididymal white adipose tissue of HFD-fed mice; experiment: Gene expression (mRNA) in epididymal white adipose tissue of HFD-fed mice; assay type: in vivo
Description: as §1
To determine if JPH203 affected adipose tissue function, the epididymal and inguinal white adipose tissues were dissected and analyzed 15 days after treatment.

[5] = system: adipose tissues of HFD-fed mice; experiment: Nile red and Mitotracker staining of adipose tissues of HFD-fed mice; assay type: in vivo
Description: [“Epi fat”=epididymal white adipose tissue; “SubQ”=inguinal white adipose tissue; “iBAT”=interscapular brown adipose tissue; data shown as mean±standard error (SE) and significance was determined by one-way ANOVA or unpaired two-tailed t-test; *P<0.05, **P<0.01.]
as §1

HFD-fed mice [6] = experiment: Glucose homeostasis and intraperitoneal glucose tolerance testing in HFD-fed mice; assay type: in vivo
Description: [data shown as mean±SEM and significance was determined by one-way ANOVA (for analysis shown in Panels A, B, C, D, and G) or multiple unpaired t-test (for analysis shown in Panel F); *P<0.05, **P<0.01, ***P<0.001.]
as §1
Mice that were obese due to HFD were hyperglycemic and hyperinsulinemia regardless of fed or fasting status (see FIG. 9, Panels A-D).

[7] = system: differentiated adipocytes 3T3L1 co-cultured with macrophage (RAW 264.7 cells); experiment: Adipogenesis in co-culture of adipocyte 3T3L1 and macrophage RAW 264.7 cells; assay type: cell-based
Description: [Data shown as mean±SE and significance was determined by two-way ANOVA (for analysis shown in Panel B) and unpaired two-tailed t-test (for analysis shown in Panels D-G; *P<0.05, ***P<0.001, ****P<0.0001.]
A study was conducted to determine which aspects of the adipocyte lineage was affected by inhibition of Slc7a5. To this end, pre-adipocytes or differentiated adipocytes 3T3L1 were co-cultured in the presence of macrophage (RAW 264.7 cells). The experimental design is illustrated in FIG. 10, Panel A.
The study examined expression of PPARγ and mTOR, and Nile red stained lipid droplets, which are indicators of adipogenesis and are shown to increase in differentiated adipocytes compared to preadipocytes.

[8] = epididymal adipose tissues, vs control HFD-fed mice
[9] = epididymal white adipose tissue, 15 days after treatment
[10] = epididymal white adipose tissue, 15 days after treatment, vs control HFD-fed mice
[11] = HFD-fed mice injected with JPH203
[12] = epididymal and inguinal white adipose tissues, vs control HFD-fed mice
[13] = HFD-fed mice injected with JPH203 vs control HFD-fed mice
[14] = co-culture of 3T3L1 and RAW 264.7 cells
[15] = fully differentiated adipocytes as compared to the preadipocytes, in the presence of macrophages

`Nc1cc(COc2c(Cl)cc(C[C@H](N)C(=O)O)cc2Cl)c2oc(-c3ccccc3)nc2c1` [JPH203, (S)-2-Amino-3-(4-((5-amino-2-phenylbenzo[d]oxazol-7-yl)methoxy)-3,5-dichlorophenyl)propanoic acid] was tested, and the “mass of interscapular brown adipose tissue and epididymal and inguinal white adipose tissue, normal fed mice compared to HFD-fed mice injected with JPH203” value (HFD-fed mice [1]; at 15 days) was “not significantly less”, the body weight (HFD-fed mice [1]; HFD-fed mice, after 15 days, vs HFD-fed mice injected with vehicle (PBS)) was “significant weight reduction” and the “mass of epididymal white adipose tissue” value (HFD-fed mice [1]; HFD-fed mice, at 15 days, vs control HFD-fed mice) was “significantly less”. The “appetite suppression (food and water consumption) as contributor to weight loss” value (HFD-fed mice [1]; HFD-fed mice, over 15 days) was “not a major contributing factor”, the “Creatine levels (kidney function)” value (HFD-fed mice [2]; 15 days) was “in the normal ranges” and the “complete blood counts (CBC): effect on bone marrow and immune response” value (HFD-fed mice [2]; 15 days) was “no significant effect”. The “mice activity (running wheel experiment)” value (HFD-fed mice [2]; 15 days) was “does not decrease mice activity”, the AST serum level (HFD-fed mice [2]; 15 days, normal is 13-35 IU/L) was “in the normal range” and the ALT serum level (HFD-fed mice [2]; 15 days, normal is 37-88 IU/L) was “in the normal range”. For the same molecule, the “Creatine levels compared with control HFD-fed mice” value (HFD-fed mice [2]; 15 days, vs control HFD-fed mice) was “significantly less”, the “liver, heart, or kidney weight” value (HFD-fed mice [2]; day 15) was “no effect” and the “serum level of IGF1” value (HFD-fed mice [3]) was “decreased”. For the same molecule, the “serum level of IL1α” value (HFD-fed mice [3]) was “decreased”, the “serum level of IL1β” value (HFD-fed mice [3]) was “decreased” and the “serum level of IL6” value (HFD-fed mice [3]) was “increased”. For the same molecule, the “serum level of MCP1” value (HFD-fed mice [3]) was “decreased”, the “serum level of TNFα” value (HFD-fed mice [3]) was “decreased” and the “serum level of VEGF” value (HFD-fed mice [3]) was “decreased”. For the same molecule, the “serum level of leptin” value (HFD-fed mice [3]) was “decreased”, the “genes related to anti-adipogenic factor” value [4, 8] was “upregulated” and the “genes related to energy dissipation/fatty acid β oxidation” value [4, 8] was “upregulated”. For the same molecule, the “genes related to fatty acid uptake” value [4, 8] was “upregulated”, the “genes related to glucose uptake/glycolysis” value [4, 8] was “downregulated” and the “genes related to glyceroneogenesis/fatty acid synthesis” value [4, 8] was “downregulated”. The “genes related to lipogenesis” value [4, 8] was “downregulated”, the “genes related to lipolysis” value [4, 8] was “downregulated” and the “genes related to pentose phosphate pathway (NADPH production)” value [4, 8] was “downregulated”. The “Hif2α expression (downstream target of mTOR signaling)” value [4, 9] was “decreased”, the Slc7a5 expression [4, 9] was “did not change” and the “anti-inflammatory arginase 1 (Arg1) gene expression” value [4, 9] was “increased”. For the same molecule, the “proinflammatory nitric oxide synthase 2 (Nos2/Inos) gene expression” value [4, 9] was “reduced”, the “mRNA levels for beiging and browning markers” value [4, 10] was “increased” and the “mRNA levels for general adipogenic markers” value [4, 10] was “decreased”. For the same molecule, the “mRNA levels for white adipogenic markers” value [4, 10] was “decreased”, the “mitochondrial biogenesis in interscapular brown adipose tissues (Mitotracker staining)” value [5, 11] was “significantly increased” and the “adipocyte lipid content (Nile red staining)” value [5, 12] was “lower lipid content”. The “adipocyte size (Nile red staining)” value [5, 12] was “smaller sized adipocytes”, the “reduction in blood glucose concentration after glucose administration (IPGTT)” value (HFD-fed mice [6]; [11]) was “significantly faster reduction” and the “correlation of weight loss with decreased baseline glucose” value (HFD-fed mice [6]; HFD-fed mice injected with JPH203 compared with control HFD-fed mice) was “positively correlated”. The fasting glucose (HFD-fed mice [6]; [13]) was “lower”, the fed glucose (HFD-fed mice [6]; [13]) was “lower” and the glucose tolerance (HFD-fed mice [6]; [13]) was “improved”. The adipocyte differentiation [7, 14] was “decreased”, the “cell survival / cell death” value [7, 14] was “does not affect cell survival” and the “lipid droplets (Nile red stained)” value [7, 14] was “reduction”. The PPARγ expression [7, 15] was “reduced” and the mTOR expression [7, 15] was “reduced”.

— patent publication US20250262190A1, “USE OF LAT1 INHIBITORS TO TREAT OBESITY” (Georgetown University, priority 2022, published 2025)
